Consider five compounds from ChEMBL document CHEMBL4425119, “Design and Development of a Series of Potent and Selective Type II Inhibitors of CDK8” (ACS Med Chem Lett, 2016).

The nature of data set [1]: Permeability across apical to basolateral side of MDCK cells. The settings on record: dog, read-out: permeability. The data set is classed as ADME, cell-based, Canis lupus familiaris.
A short description of data set [2]: Permeability across basolateral to apical side of MDCK cells. The class given is ADME, cell-based, Canis lupus familiaris. The settings on record: dog.

With `CNc1nccc(N2CC[C@H](NC(=O)Nc3ccc(CN4CCN(C)CC4)c(C(F)(F)F)c3)C2)n1`, the Papp A→B in data set [1] was 4.1 ×10⁻⁶ cm/s. Further, in data set [2], the basolateral-to-apical permeability (Papp B→A) was 4.5 ×10⁻⁶ cm/s.

Regarding `CNc1nccc(N2CC[C@H](NC(=O)Nc3ccc(C)c(Cl)c3)C2)n1`, in data set [1], the Papp A→B stood at 3.9 ×10⁻⁶ cm/s. For the same compound, the Papp B→A in data set [2] came to 7 ×10⁻⁶ cm/s.

With `CNc1nccc(N2CC[C@H](NC(=O)Nc3ccc(CN4CCOCC4)c(C(F)(F)F)c3)C2)n1`, in data set [1], the Papp A→B is 12.4 ×10⁻⁶ cm/s. Further, in data set [2], the basolateral-to-apical permeability (Papp B→A) turned out to be 12.2 ×10⁻⁶ cm/s.

Regarding `CNc1nccc(N2CC[C@H](NC(=O)Nc3ccc(Cl)c(C(F)(F)F)c3)C2)n1`, in data set [1], the Papp A→B is 3.9 ×10⁻⁶ cm/s. In data set [2], this compound returned an apparent permeability from basolateral to apical (Papp B→A) of 4 ×10⁻⁶ cm/s.

Take `CCN1CCN(Cc2ccc(NC(=O)N[C@H]3CCN(c4ccnc(NC)n4)C3)cc2C(F)(F)F)CC1`: the Papp A→B in data set [1] amounted to 0.3 ×10⁻⁶ cm/s. Also, in data set [2], the basolateral-to-apical permeability (Papp B→A) was determined as 4.2 ×10⁻⁶ cm/s.

A word on the Papp B→A: it is how fast a substance crosses the layer from the basolateral side.
